Reference: patent publication US20100204202A1, “DRUG FOR ALLEVIATING MOTOR COMPLICATIONS OR PSYCHIATRIC SYMPTOMS OF PARKINSON'S DISEASE” (Asubio Pharma Co., Ltd., priority 2007, published 2010)
Structures can show the parent of a compound that is named as a salt.

Tested on: Parkinson's disease model rats
Assay: Rate of incidence of rotational behavior induced by levodopa dosage (response failure)
Type: in vivo, rat
Conditions: sustained subcutaneous administration (osmotic pump) from week 6 of repeated levodopa, 2 weeks
Experimental: Therefore, the inventors prepared Parkinson's disease model rats in the same way as in Example 4 and treated the rats by repeated doses of levodopa (twice a day, Monday to Friday) for 7 weeks. The presence or absence of the rotational behavior of each rat was recorded at approximately 1 hour after the administration of levodopa during the repeated dosing period. […] Therefore, from weeks 1 to 5 of repeated doses of levodopa, the inventors recorded the presence of any rotational behavior of the rats each time, then studied the effects of the tested substances from week 6 of repeated doses of levodopa by implanting an Aizet® osmotic pump filled with SUN N4057 or physiological saline (2ML4, volume 2 ml, flow rate 2.5 μl/hr) subcutaneously at the rats. In the 2 weeks after that, the inventors similarly continued to record the presence of any rotational behavior of the rats 1 hour after levodopa administration.

`O=C1c2ccccc2OC=C(Cl)N1CCCCN1CC=C(c2ccccn2)CC1` [SUN N4057, 3-chloro-4,5-dihydro-4-{4-[4-(2-pyridyl)-1,2,3,6-tetrahydropyridin-1-yl]butyl}-1,4-benzoxazepin-5-one.dihydrochloride-dihydrate] was tested, and the “rate of incidence of rotational behavior” value was “action on recovery”.
